# US8536113B2, “EGFR binding peptides and uses thereof” (Janssen Biotech, Inc., priority 2006, dated 2013)
# What was measured:
# MCF-7 = assay: Flow cytometry of phage binding to EGFR negative tumor cells; format: cell-based, human; details: EGFR positive versus EGFR negative cells
# Protocol: (§1) Flow cytometry. To evaluate whether the selected peptides from phage display can bind to tumor cells that overexpress EGFR, A431 cells (epidermoid cancer) or an EGFR negative tumor cells, MCF-7 (breast carcinoma) were tested in a flow cytometry assay using fluorescence detection (FACS). For P145, PP146 and their control phage, 2.5×10^5 A431 cells were resuspended in 25 μl of flow staining buffer (dPBS with 1% BSA, 0.09% sodium azide) and incubated with 25 μl of phage clones for 1 hour at 4° C. […] Cells were washed two times with flow staining buffer and then incubated with 0.5 μg of mouse anti M13/fd/F1 filamentous phages monoclonal antibody conjugated to FITC (Fitzgerald Industries International, Inc. Concord, Mass.) for 45 minutes at 4° C. Cells were washed two times with flow staining buffer and acquired by FACSCalibur (BD, Franklin Lakes, N.J.) to detect bound phages on tumor cell surface. Results.
# (§2) A431 cells (epidermoid cancer) which overexpress EGFR and EGFR-negative tumor cells, MCF-7 (breast carcinoma) were tested in a flow cytometry assay. Tumor cells (A431 and MCF-7) were harvested with 0.25% tyrpsin-EDTA and washed twice with FACS staining buffer (dPBS with 1% BSA, 0.09% sodium azide). […] After binding at 4° C., cells were washed twice with FACS staining buffer to remove unbound phage and then incubated with 0.5 μg of mouse anti-M13 monoclonal antibody conjugated to FITC (Fitzgerald Industries International, Inc. Concord, Mass.) for 1 hour at 4° C. Mouse anti-M13-FITC incubated with cells without phage was used as background binding. Cells were washed twice with FACS staining buffer to remove unbound detection antibody.
# A431 cells [1] = assay: Flow cytometry of phage binding to tumor cells; format: cell-based, human
# Protocol: as §1, §2
# A431 cells [2] = assay: Internalization of biotinylated P190 by FACS and confocal microscopy; format: cell-based, human; details: 37° C.
# Protocol: The complexes were added to A431 cells that had been pre-incubated in PBS with or without EGF for 15 minutes and then incubated for an additional hour. Cells were washed to remove unbound complexes and split into two separate tubes, one of which stayed at 4° C. and one of which was incubated for 2 hours at 37° C. to promote internalization. Again, cells were washed and further split into 2 groups with one tube from each temperature undergoing acid wash treatment to remove surface-bound biotinylated peptide. Cells were washed again in FACS staining buffer and peptide binding and internalization were acquired by FACSCalibur (BD, Franklin Lakes, N.J.) and analyzed by Cell Quest software. The remaining cells from both 4° C. and 37° C. without acid wash after FACS analysis were centrifuged and resuspended with 50 μL mounting medium containing DAPI (Vector Laboratory Inc. Burlingame, Calif.). Ten μL of cells in mounting medium were transferred to a glass slide, covered with thin glass slips and examined by confocal microscopy.
# [3] = biological target: T1, complex between EGF and sEGFR-MMB (Homo sapiens, UniProt P00533); assay: Phage ELISA binding studies on P190, receptor with added EGF; details: Table 10; listed as pIX-190
# T1 construct: made in house
# Protocol: The plates were held overnight at room temperature, washed twice with TBST (0.5M Tris Base, 9% NaCl, 0.05% tween, pH 7.6), and loaded with 200 μL per well of Starting Block (Pierce). […] The plates were held at room temperature for 1.5 hours for blocking. Plates were then washed twice with TBST and phage were added. The phage solutions were crude phage supernatant from overnight cultures diluted four-fold with Starting Block. After a one-hour incubation, the plates were washed thrice with TBST and 100 μL of a 1:5000 dilution of phage binding antibody conjugate (α-M13-HRP) was added to the wells. EGF was added if applicable. After a one-hour incubation the plates were washed five times with TBST, 100 μL of POD (BM Chemiluminescence ELISA substrate; Roche Applied Science) was added, and chemiluminescence recorded.
sequence,measurement,setting,value
DPCTWEVWGRECLQ [P190],binding to A431 compared with MCF-7,MCF-7,bound more effectively to A431 cells
same,binding to A431 compared with MCF-7,MCF-7; listed as pIII-190,bind to A431 but not to MCF-7
same,binding to A431 compared with MCF-7,MCF-7; listed as pIX-190,bind to A431 but not to MCF-7
same,phage binding to A431 cells in the presence of EGF,A431 cells [1],increased
same,phage binding to A431 cells in the presence of EGF and cetuximab,A431 cells [1],decreases
same,internalization into EGFR^+ cells,A431 cells [2],is internalized
same,Binds EGF + SEGFR-MMB Complex,[3],increased in the presence of EGF or TGF-a
